Measurements: ChEMBL document CHEMBL4421717, “Antagonists and agonists of bitter taste receptors and uses thereof” (2012)
Active and inactive are the calls of the source. The calls are words filed in the database; no cut-off is given here.

How the values were obtained:
Type in all cases: functional, cell-based
[1] = biological target: T1, Taste receptor type 2 member 46 (Homo sapiens, UniProt P59540); assay: Antagonist activity at recombinant human N-terminal rat ST3 receptor-fused TAS2R46 expressed in HEK293T cells co-expressing Galpha16gust44 assessed as inhibition of 300 uM picrotoxinin-induced intracellular calcium level 100 uM by FLIPR assay
T1 sequence (P59540 whole entry): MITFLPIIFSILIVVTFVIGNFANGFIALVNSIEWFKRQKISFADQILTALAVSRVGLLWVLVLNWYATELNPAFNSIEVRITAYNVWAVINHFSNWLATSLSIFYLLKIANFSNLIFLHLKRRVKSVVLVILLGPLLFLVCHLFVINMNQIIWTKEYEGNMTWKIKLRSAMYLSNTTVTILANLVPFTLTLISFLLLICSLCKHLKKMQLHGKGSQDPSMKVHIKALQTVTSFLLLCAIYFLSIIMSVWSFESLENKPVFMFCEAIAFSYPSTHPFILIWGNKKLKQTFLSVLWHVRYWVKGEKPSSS

[2] = biological target: T2, Taste receptor type 2 member 16 (Homo sapiens) (UniProt Q9NYV7); assay: Agonist activity at recombinant human N-terminal rat ST3 receptor-fused TAS2R16 expressed in HEK293T cells co-expressing Galpha16gust44 assessed as effect on intracellular calcium level at 100 uM by FLIPR assay
T2 sequence (whole entry): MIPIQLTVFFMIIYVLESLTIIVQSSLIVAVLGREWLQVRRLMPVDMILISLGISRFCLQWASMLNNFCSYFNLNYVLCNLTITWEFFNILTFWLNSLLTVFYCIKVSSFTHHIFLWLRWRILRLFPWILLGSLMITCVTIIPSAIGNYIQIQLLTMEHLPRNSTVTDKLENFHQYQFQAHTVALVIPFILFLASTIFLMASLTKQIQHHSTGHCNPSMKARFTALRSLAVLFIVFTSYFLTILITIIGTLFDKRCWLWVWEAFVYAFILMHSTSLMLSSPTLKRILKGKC

[3] = biological target: T3, Taste receptor type 2 member 1 (Homo sapiens) (UniProt Q9NYW7); assay: Agonist activity at recombinant human N-terminal rat ST3 receptor-fused TAS2R1 expressed in HEK293T cells co-expressing Galpha16gust44 assessed as effect on intracellular calcium level at 100 uM by FLIPR assay
T3 sequence (whole entry): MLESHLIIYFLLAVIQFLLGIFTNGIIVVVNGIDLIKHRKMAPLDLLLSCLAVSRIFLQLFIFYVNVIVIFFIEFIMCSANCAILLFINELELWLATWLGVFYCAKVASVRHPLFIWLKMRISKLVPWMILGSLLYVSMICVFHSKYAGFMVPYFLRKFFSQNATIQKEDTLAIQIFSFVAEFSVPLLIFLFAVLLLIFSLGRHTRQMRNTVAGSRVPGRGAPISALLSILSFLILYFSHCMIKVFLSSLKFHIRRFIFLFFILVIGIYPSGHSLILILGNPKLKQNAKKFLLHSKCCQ

[4] = biological target: T4, Taste receptor type 2 member 46 (Homo sapiens) (UniProt P59540); assay: (§1) Competitive antagonist activity at recombinant human N-terminal rat ST3 receptor-fused TAS2R46 expressed in HEK293T cells co-expressing Galpha16gust44 assessed as inhibition strychnine-induced intracellular calcium level by measuring strychnine induced maximum signal amplitude at 100 uM by FLIPR assay (reference value: 0.42 +/- 0.09 au))
T4 sequence (whole entry): T1 sequence (P59540 whole entry)

[5] = biological target: T4, Taste receptor type 2 member 46 (Homo sapiens); assay: as §1, with “30” for “100”
[6] = biological target: Taste receptor type 2 member 31 (Homo sapiens) (UniProt P59538); assay: Agonist activity at recombinant human N-terminal rat ST3 receptor-fused TAS2R44 expressed in HEK293T cells co-expressing Galpha16gust44 assessed as effect on intracellular calcium level at 100 uM by FLIPR assay
[7] = biological target: T5, Taste receptor type 2 member 4 (Homo sapiens) (UniProt Q9NYW5); assay: Agonist activity at recombinant human N-terminal rat ST3 receptor-fused TAS2R4 expressed in HEK293T cells co-expressing Galpha16gust44 assessed as effect on intracellular calcium level at 100 uM by FLIPR assay
T5 sequence (whole entry): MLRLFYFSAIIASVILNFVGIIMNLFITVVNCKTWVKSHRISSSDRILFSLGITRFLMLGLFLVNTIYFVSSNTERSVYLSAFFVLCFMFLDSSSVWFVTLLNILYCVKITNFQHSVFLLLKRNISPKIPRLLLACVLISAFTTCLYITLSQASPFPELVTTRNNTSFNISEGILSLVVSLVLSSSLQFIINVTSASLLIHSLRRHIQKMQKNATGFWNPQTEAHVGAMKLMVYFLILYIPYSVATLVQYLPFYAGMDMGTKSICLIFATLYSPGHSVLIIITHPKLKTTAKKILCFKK

Chain of Taste receptor type 2 member 31 (Homo sapiens) (P59538 whole entry, the tested form may be a part): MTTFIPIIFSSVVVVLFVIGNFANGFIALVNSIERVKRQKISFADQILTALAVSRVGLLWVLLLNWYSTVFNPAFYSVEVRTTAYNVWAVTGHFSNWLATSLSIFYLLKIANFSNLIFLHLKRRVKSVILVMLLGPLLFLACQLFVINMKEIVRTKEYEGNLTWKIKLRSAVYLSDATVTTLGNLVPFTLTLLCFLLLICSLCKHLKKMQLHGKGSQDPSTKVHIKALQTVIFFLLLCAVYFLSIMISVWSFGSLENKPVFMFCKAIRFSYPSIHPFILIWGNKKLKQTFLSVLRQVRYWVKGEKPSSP

C/C1=C\C[C@H](O)[C@@H](C)C[C@H]2OC(=O)[C@@H](C)C2CC1 (some centres not stated)
IC50 [1]: 22.9 µM

C/C1=C\C[C@H](O)/C(C)=C/[C@H]2OC(=O)[C@@H](C)C2CC1 (some centres not stated)
Activity [2]: inactive
Activity [3]: Active
Activity [4]: 0.34 a.u.
Activity [5]: 0.41 a.u.
Activity [6]: Active
Activity [7]: Active
